Measurements published in patent US7160916B2, “Method of increasing bone density or treating osteoporosis” (Yung Shin Pharmaceutical Ind. Co., Ltd., priority 2003, dated 2007).

Tested on: Male SD rats
Test: Local injection into proximal tibia, bone histomorphometry (bone growth)
Type: in vivo, rat
Experimental: Assay of bone resorption of osteoclast: Osteoclast precursors were isolated from rat long bones as mentioned above. The cells were re-suspended in a complete DMEM medium and plated into a calcium phosphate apatite-coated 24-well plate, OAAS (Oscotec, OCT USA Inc.) at 1×10^6 cells/0.5 ml/well. The cells were cultured for 5 days in the presence of M-CSF (20 ng/ml) plus sRANKL (50 ng/ml). Indazole 1 was injected daily for additional 3 days in the absence of M-CSF and sRANKL. Culture was terminated on day 8 and the remaining cells in the plate were lysed using 1 N NaOH. Five images per well were obtained using an inverted microscope (200×), and resorbed area was measured using an image analyzer. Local injection Male SD rats weighing 70–88 gm were used. Implantation of a cannula (22G) was done from the posteriolateral side into the proximal tibial metaphysis in both limbs of rats anesthetized with pentobarbital. The cannula had its outer end in the subcutaneous tissue. Indazole 1 was percutaneously injected through the cannula into the proximal tibia once/day for 1 week. The same concentration of DMSO diluted with normal saline was injected into the right side for comparison. On day 14, the rats were sacrificed and tibiae were fixed in 10% formaldehyde for 48 h at 4° C. Bone histomorphometry: After formalin fixation of tibia was completed, the tibiae were then decalcified in 0.5 N hydrochloric acid, dehydrated in an ascending series of ethanol solution and acetone, and embedded in paraffin. Serial sections (5 μm) were cut longitudinally and stained with Mayer's hematoxylin-eosin solution (Yang et al. (1993) Calcif Tissue Int 52:57–61). Images of the growth plate and proximal tibia were photographed using a photoMicroGraphic Digitize integrate System (MGDS; Total-Integra Technology Co., Ltd., Taipei, Taiwan). Bone volume measurements were performed on the whole secondary spongiosa, which is located under the primary spongiosa and characterized by a network of larger trabeculae. Bone volumes were calculated using an image analysis software. All measurements were done in a single-blind fashion. Bone growth: Male young rats (SD) weighing 70–90 gm were divided into six groups. The average weight of the rats in each group was 73.9±1.1 gm. Indazole 1 was dissolved in DMSO and diluted with saline to a final concentration of 10 μM. One of the six groups was a control group, and the other groups were punctuated with a needle cannula alone, injected with a vehicle using a needle cannula (day 1, once), injected with Indazole 1 (day 1, once), injected with a vehicle using a needle cannula (days 1–7, daily), and injected with Indazole 1 (days 1–7, daily), respectively. […] Trabecular bone in the secondary spongiosa increased by 90% after local injection of Indazole 1 for 7 days.

OCc1ccc(-c2nn(Cc3ccccc3)c3ccccc23)o1 [Indazole 1, 1-benzyl-3-(5′-hydroxymethyl-2′-furyl)-indazole]
effect on tibia length (local injection): not significantly affected | Trabecular bone in the secondary spongiosa increased by (local injection for 7 days): 90% | bone volume of the secondary spongiosa (local injection into proximal tibia, 0.1 nmole, daily for 7 days, then 7 further days, young male rats): significantly increased | Tibia length (local injection, n=9): 3.32±0.02 cm
